Where two headings read alike, the source gives them in different places.
What was measured:
angiotensin II receptor = target: T1, angiotensin II receptor (Oryctolagus cuniculus, UniProt P34976); assay: Binding inhibition of 3H labeled angiotensin II to angiotensin II receptor membrane fraction; design: species or system rabbit; conditions: for IC50: rabbit adrenal gland membrane, 3H labeled angiotensin II 10^-9M, read-out: Receptor binding inhibition effect IC50
T1 construct: fraction of angiotensin II receptor membrane ([…]) prepared from rabbit adrenal gland; from tissue; host or cells: rabbit adrenal gland membrane fraction
T1 sequence (P34976 1-359): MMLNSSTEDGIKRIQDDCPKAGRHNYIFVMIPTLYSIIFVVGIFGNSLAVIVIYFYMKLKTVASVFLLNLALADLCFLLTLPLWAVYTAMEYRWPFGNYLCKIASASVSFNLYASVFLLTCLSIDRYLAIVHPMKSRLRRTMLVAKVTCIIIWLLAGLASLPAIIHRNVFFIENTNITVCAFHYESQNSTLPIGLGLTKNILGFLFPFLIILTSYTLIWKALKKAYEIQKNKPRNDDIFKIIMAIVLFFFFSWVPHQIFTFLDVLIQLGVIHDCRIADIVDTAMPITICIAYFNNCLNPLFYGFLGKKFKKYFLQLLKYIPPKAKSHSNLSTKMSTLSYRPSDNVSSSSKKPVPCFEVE
Description: The method of Cox et. al (Biochemical Pharmacology 33, 4057-4064 (1984) was modified to conduct angiotensin II receptor binding inhibition experiments. The present compounds (10^−5M to 10^−9M) and ^3H labeled angiotensin II (10^−9M) were added to a fraction of angiotensin II receptor membrane ([…]) prepared from rabbit adrenal gland and were allowed to react in a 20 mM Tris HCl buffer (pH: 7.0) containing 120 mM NaCl, 5 mM EDTA, 0.1 mM PMSF, and 0.2% BSA at 30° C. for 20 minutes so that the final volume was 540 μl. Then, the reaction mixture was quickly passed through a filter (whatman GF/B), and the filter was then rinsed three times in 4 ml of the buffer cooled in ice. Then, the radioactivity of receptor binding ^3H labeled angiotensin II captured on the filter was measured using a liquid scintillation counter. The angiotensin II receptor binding inhibition activity of the present compounds was evaluated based on the concentration (IC 50) required to replace 50% of the total amount of specifically binding ^3H labeled angiotensin II.

aortae of guinea pigs = assay: Inhibition of vascular contraction caused by angiotensin II using pieces of the aortae of guinea pigs; assay type: cell-based; conditions: Cavia porcellus; guinea pig chest aorta, contraction induced by angiotensin II; read-out: Vascular contraction inhibition effect IC50
Description: Male Hartly guinea pigs (350 to 400 g) were contused on the head and sacrificed by allowing their blood to discharge from the arteria carotis communis. Immediately after death, the chest aorta was removed. A spiral sample of width 2 to 3 mm and length 20 to 25 mm was cut from the aorta, and was suspended in 4.5 ml of Krebs-Henseleit (K-H) solution (120 mM NaCl, 4.7 mM KCl, […], 1.2 mM KH2PO4, 2.5 mM CaCl2, 25 mM NaHCO3, and 10 mM glucose) in a Magnus vessel. The K-H solution in the Magnus vessel was maintained at 37° C., and a mixture gas of 95% O2 and 5% CO2 was continuously bubbled through the solution. First, 1 g of initial tension was applied to the sample, which was then left to stand rest for about 30 minutes, and 45 μl of 4M KCl solution was added to the solution to induce contraction. After contraction had stabilized, a washing operation was performed to replace the K-H solution. Then, after the sample was left to stand for 30 minutes, 45 μl of solvent DMSO was added to incubate the sample for 15 minutes, and 45 μl of angiotensin II solution (3×10^−8M) was added to induce contraction. This operation was repeated three times and 100% contraction was used as the average. Subsequently, the sample was stabilized by washing. Then, a 45 μl sample of each test compound prepared for each concentration (3×10^−5M to 10^−7M) using DMSO as a solvent was used to observe the inhibition effect of angiotensin II on vascular contraction by performing the same operation as described above. The contraction reaction was recorded on a recorder (RTA-1100, Japan Photoelectronics) via an equi-scale pressure transducer (TB-651T, Japan Photoelectronics). The angiotensin II inhibition effects of the test compounds were evaluated using the IC50 value.

[1] = test system: hypertension caused by angiotensin II; assay: Inhibition effect in the hypertension caused by angiotensin II using rats; assay type: in vivo, rat; conditions: Rattus norvegicus, iv, i. v., male SD rats, angiotensin II 100 ng/kg
Description: Male SD rats (age; 11 weeks; 310 to 330 g) Were used, and indwelling cannula were placed in the femoral aorta and the vena cava, under anesthesia with inactin. The arterial cannula was connected to a pressure transducer to record the blood pressure via a carrier amplifier (AP-601G Japan Photoelectronics) using a polygraph system (RM-6000 Japan Photoelectronics). Prior to tests using the test compounds, 100 ng/kg-equivalent angiotensin II (50 μl of serum solution from the rat) was administered using a regular-pulse cannula to check the hypertensive action. Then, 30 minutes later, a 1 mg/kg-equivalent test compound (50 μl of serum solution from the rat) was administered using the regular-pulse cannula, and similar administration of angiotensin II was performed 5 and 60 minutes later to check the corresponding hypertensive action. The hypertensive effect resulting from the administration of only angiotensin II was taken as a reference value of 100% to determine the antihypertensive rates of the test compounds.

male ICR mice = assay: Acute toxicity tests using male ICR mice; assay type: in vivo; conditions: 250, 500 and 1,000 mg/kg orally, dissected after 21 days
Description: Acute toxicity tests of the compounds 1d and 2d described in table 1 were carried out. […] As a result, in each administration group, no mouse died whichever compound had been administered.

[2] = 5 min, 5 minutes after administration, read-out: Inhibition effect in the hypertension by angiotensin II, 5 minutes after administration
[3] = 1 h, 60 minutes after administration, read-out: Inhibition effect in the hypertension by angiotensin II, 60 minutes after administration

| SMILES | Angiotensin II receptor antagonism (in words) (angiotensin II receptor) | IC50 (angiotensin II receptor) | IC50 (aortae of guinea pigs) | inhibition in vivo at 1 mg/kg [1, 2] | inhibition in vivo at 1 mg/kg [1, 3] | Findings on dissection at the end of the observation period (male ICR mice) | melting point |
| --- | --- | --- | --- | --- | --- | --- | --- |
| CCCCc1nc(CCCC)n(Cc2ccc(-c3ccccc3/C=C3\NC(=O)CC3=O)cc2)n1 [Compound 1d, 3,5-Dibutyl-1-[2′-[(2,4-dioxopyrrolidine-5(Z)-ylidene)methyl]biphenyl-4-yl]methyl-1H-1,2,4-triazole] | distinct angiotensin II receptor antagonism | 130 nM | 1400 nM | ≥ 70% | 30 to 70% | no abnormality |  |
| CCCCc1nc(C2CC2)nn1Cc1ccc(-c2ccccc2/C=C2\OC(=O)C=C2O)cc1 [Compound 2c, 5-Butyl-3-cyclopropyl-1-[2′-[(4-hydroxy-2(5H)-furanone-5(Z)-ylidene)methyl]biphenyl-4-yl]methyl-1H-1,2,4-triazole] |  | 150 nM | > 300000 nM | 10 to 30% | < 10% |  | 168 to 170 °C |
| CCCCc1nc(CCCC)n(Cc2ccc(-c3ccccc3/C=C3\OC(=O)C=C3O)cc2)n1 [Compound 2d] | distinct angiotensin II receptor antagonism | 46 nM | 4500 nM | 30 to 70% | 10 to 30% | no abnormality |  |
| CCCCc1nc(-c2ccccc2)nn1Cc1ccc(-c2ccccc2/C=C2\OC(=O)C=C2O)cc1 [Compound 2e, 5-Butyl-3-phenyl-1-[2′-[(4-hydroxy-2(5H)-furanone-5(Z)-ylidene)methyl]biphenyl-4-yl]methyl-1H-1,2,4-triazole] |  | 180 nM | 154000 nM | 30 to 70% | 30 to 70% |  | 188 to 189 °C |
| CCCCc1nc(CCc2ccccc2)nn1Cc1ccc(-c2ccccc2/C=C2\OC(=O)C=C2O)cc1 [Compound 2f, 5-Butyl-3-(2-phenylethyl)-1-[2′-[(4-hydroxy-2(5H)-furanone-5(Z)-ylidene)methyl]biphenyl-4-yl]methyl-1H-1,2,4-triazole] |  | 11 nM | > 300000 nM | 30 to 70% | < 10% |  | 184 to 185 °C |
| CCCCc1nc(-c2ccco2)nn1Cc1ccc(-c2ccccc2/C=C2\OC(=O)C=C2O)cc1 [Compound 2j, 5-Butyl-(furan-2-yl)-1-[2′-[(4-hydroxy-2(5H)-furanone-5(Z)-ylidene)methyl]biphenyl-4-yl]methyl-1H-1,2,4-triazole] |  | 280 nM | > 300000 nM | < 10% | < 10% |  | 172 to 173 °C |
| CCCCc1nc(-c2cccs2)nn1Cc1ccc(-c2ccccc2/C=C2\OC(=O)C=C2O)cc1 [Compound 2k, 5-Butyl-3-(thiophene-2-yl)-1-[2′-[(4-hydroxy-2(5H)-furanone-5(Z)-ylidene)methyl]biphenyl-4-yl]methyl-1H-1,2,4-triazole] |  | 310 nM | > 300000 nM | 10 to 30% | < 10% |  | 179 to 180 °C |

Reference: US6358984B1, “2,4-dioxopyrrolidine and 2,4-dioxotetrahydrofuran derivatives and medicines containing the same as the active ingredient” (Lead Chemical Co., Ltd., priority 1996, dated 2002)
